Measurements: PMC11040118 (Heliyon, 2024)
Like-named read-outs stand apart in the source and are kept apart here.

Target: T1, Thyroperoxidase (TPO) (Rattus norvegicus, UniProt P14650)
T1 sequence (P14650 32-914): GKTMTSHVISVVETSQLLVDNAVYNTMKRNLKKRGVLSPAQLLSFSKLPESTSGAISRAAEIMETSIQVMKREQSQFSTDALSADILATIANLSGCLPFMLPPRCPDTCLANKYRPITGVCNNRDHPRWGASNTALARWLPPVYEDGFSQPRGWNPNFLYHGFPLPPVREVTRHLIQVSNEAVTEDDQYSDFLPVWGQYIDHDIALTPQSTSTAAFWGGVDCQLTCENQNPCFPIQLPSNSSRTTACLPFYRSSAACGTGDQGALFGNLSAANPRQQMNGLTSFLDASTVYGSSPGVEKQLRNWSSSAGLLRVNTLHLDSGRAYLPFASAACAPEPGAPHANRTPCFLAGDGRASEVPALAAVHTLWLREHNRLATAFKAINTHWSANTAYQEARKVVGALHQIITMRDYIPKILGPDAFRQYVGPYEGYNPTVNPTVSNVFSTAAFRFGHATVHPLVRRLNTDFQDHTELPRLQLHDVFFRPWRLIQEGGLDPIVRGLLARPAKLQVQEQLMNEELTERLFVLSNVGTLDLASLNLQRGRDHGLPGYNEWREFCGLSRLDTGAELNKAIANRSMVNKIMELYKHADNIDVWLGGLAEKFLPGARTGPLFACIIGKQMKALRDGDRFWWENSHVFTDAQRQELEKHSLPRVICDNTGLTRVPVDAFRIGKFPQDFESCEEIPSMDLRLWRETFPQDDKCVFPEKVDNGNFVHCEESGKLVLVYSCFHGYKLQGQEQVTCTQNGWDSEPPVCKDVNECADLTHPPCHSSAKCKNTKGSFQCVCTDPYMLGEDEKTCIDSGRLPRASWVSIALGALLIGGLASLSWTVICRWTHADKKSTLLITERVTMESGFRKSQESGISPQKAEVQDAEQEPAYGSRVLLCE
Assay type: biochemical

[1] = AVG IC50 ± SD, L-Tyr to MIT, rat thyroid microsomes, mean of N = 3 ± SD
[2] = Actual pIC50, in vitro value repeated in Table 2 for comparison with the models
[3] = Log10 Value of AVG IC50, L-Tyr to MIT, from average IC50, Table 1

## NC(=S)Nc1ccccc1 [Phenylthiourea]
[1]
  IC50: 2730 ± 690 nM
[2]
  IC50: 2750 nM

## Oc1ccc(OCc2ccccc2)cc1 [4-Benzyloxy phenol, 4-Benzyloxyphenol]
[1]
  IC50: 8760 ± 1360 nM
[2]
  IC50: 8910 nM
[3]
  IC50: 8910 nM

## CC[C@H](c1ccc(O)cc1)[C@@H](CC)c1ccc(O)cc1 [Hexestrol]
[1]
  IC50: 7770 ± 2710 nM
[2]
  IC50: 7940 nM
[3]
  IC50: 7940 nM

## O=c1c(O)c(-c2ccc(O)cc2)oc2cc(O)cc(O)c12 [Kaemferol, Kaempferol]
[1]
  IC50: 4930 ± 1970 nM
[2]
  IC50: 5010 nM
[3]
  IC50: 5010 nM

## COc1cc(CCC(=O)CC(=O)CCc2ccc(O)c(OC)c2)ccc1O [Tetrahydro curcumin, Tetrahydrocurcumin]
[1]
  IC50: 1510 ± 170 nM
[2]
  IC50: 1550 nM
[3]
  IC50: 1550 nM

## COc1cc(/C=C/C(=O)CC(=O)/C=C/c2ccc(O)c(OC)c2)ccc1O [Curcumin]
[1]
  IC50: 1810 ± 430 nM
[2]
  IC50: 1820 nM

## O=C(O)c1cc(O)c(O)c(O)c1 [Gallic acid hydrate]
[1]
  IC50: 790 ± 340 nM
[2]
  IC50: 813 nM
[3]
  IC50: 813 nM

## O=C(O[C@@H]1Cc2c(O)cc(O)cc2O[C@@H]1c1cc(O)c(O)c(O)c1)c1cc(O)c(O)c(O)c1 [Epigallocatechin gallate]
From average IC50, Table 1
  Log10 Value of AVG IC50, L-Tyr to MIT: 6.48
In vitro value repeated in Table 2 for comparison with the models
  Actual pIC50: 6.48

## Oc1ccc(/C=C/c2cc(O)cc(O)c2)cc1 [Reservatrol, Resveratrol]
[1]
  IC50: 710 ± 50 nM
[2]
  IC50: 724 nM
